“Also recorded” adds a separate entry of the source.
Columns and labels:
sigma 2 receptor = sigma 2 receptor (Homo sapiens, UniProt Q5BJF2); settings: cited from earlier work
schizophrenic patients = assay: Polysomnographic (PSG) sleep recording in a sub-group of patients; type: in vivo, human
Text: 3. Exploratory: In a sub-group of patients, polysomnographic sleep continuity and sleep architecture parameters.
2. Secondary efficacy variables: Same method for the PANSS total and sub-scores at three months of treatment, BACS, DAI-10, MADRS, HAMA, and PSQI on the Full Analysis Set (FAS). Last Observation Carried Forward (LOCF) procedure used for missing data imputation. Analysis of variance (ANOVA) for the Readiness for Discharge Questionnaire (RDQ) at 14 days. Wilcoxon rank sum test for CGI-S. Descriptive statistics and graphical presentation on changes from baseline on FAS. Efficacy analyses (ANCOVA) additionally performed on the Per Protocol Set. Supportive exploratory analysis on PANSS using longitudinal, likelihood-based, mixed-effect model on FAS without missing data imputation. On a subtest of patients, polysomnographic (PSG) recording parameters analyzed using descriptive statistics and ANCOVA on changes from baseline.
Polysomnographic recordings took place in a sub-group of patients. Sleep was recorded from 11:00 pm to 7:00 am on D-1 after a habituation night (baseline condition) and on D14. Analyses regarding sleep continuity, stage distribution, and stage profile parameters were exploratory. The treatment differences on each of these sleep parameters were analyzed using D14 values with ANOVAs and ANCOVAs with country and treatment as main effects and baseline as covariate.
Among the 33 patients who had performed a PSG recording at visit lead-in day-1, 19 received placebo and 14 received the study treatment. Among these, […] experienced technical problem and/or insomnia during baseline and/or treatment night and were therefore excluded from the analysis. Finally, 20 patients were included in the analysis set of ANOVA and 19 patients were included in the analysis set of ANCOVA, and according to the SAP, only ANCOVA results were taken into account and are further discussed in the next sections.

dopamine = settings: known; cited from earlier work
[1] = tested on: patients with DSM-IV schizophrenia; assay: Phase 2 double-blind, randomized, placebo-controlled proof of concept study: efficacy scales (PANSS, CGI-S, DAI-10, PSQI, BACS, MADRS, HAMA); type: in vivo, human
Protocol: A study was conducted using the compound of formula II, to examine the efficacy on schizophrenia and treatment of symptoms of schizophrenia. The study was a multi-center, inpatient and ambulatory, phase 2, double-blind, randomized, placebo-controlled proof of concept study of the compound of formula II in patients with DSM-IV schizophrenia. The study used 21 centers across three different countries.
(§1) The study was designed to test the therapeutic efficacy of the compound of formula II on all dimensions of schizophrenic disease (E.g., positive, negative, and general symptoms, cognition, sleep, mood and anxiety). The study also examined the safety of the administered doses of the compound of formula II (also referred to herein as CYR-101), including heart repolarization (i.e., QT interval), weight change, adverse events, prolactin, and extrapyramidal symptoms).
The study was conducted for a time period of three months.
The objectives of the study included the following: • 1. Evaluate the efficacy versus placebo of CYR-101 on global PANSS score and sub-scores after one month (28 days+/− 2 days) of treatment • 2. […] Evaluate the efficacy versus placebo of CYR-101 as assessed by the CGI-S after one and three months of treatment • 4. Evaluate subjective efficacy in patients of CYR-101 versus placebo as assessed by the Drug Attitude Inventory-10 (DAI-10) after one and three months of treatment • 5. Evaluate subjective sleep quality as assessed by Pittsburgh Sleep Quality Index (PSQI) after three month of treatment • 6. Explore the efficacy versus placebo of CYR-101 on cognitive function as measured by BACS (Brief Assessment of Cognition in Schizophrenia) scale after one and three months of treatment • 7. Evaluate the efficacy versus placebo of CYR-101 in depressive symptoms as measure by the Montgomery-Asberg Depression Rating Scale (MADRS) total score after one month of treatment • 8. Evaluate the efficacy versus placebo of CYR-101 in anxiety as measured by the Hamilton Anxiety Scale (HAMA) total score after one month of treatment • 9. Assess cardio-vascular safety (particularly ventricular repolarisation as assessed by QT/QTc interval measurements) of CYR-101 compared with placebo • 10. Assess the global safety and tolerability of CYR-101 compared with placebo • 11. Determine the pharmacokinetics of CYR-101 in schizophrenic patients
(§2) CYR-101 8 mg oral sustained release (SR) tablet, oral administration of 1, 2, or 4 tablets (8, 16 or 32 mg of CYR-101) was administered twice daily in fed condition. During the dose adjustment period, CYR-101 was administered orally, twice a day in the morning and in the evening, at the daily dose of 16 mg for two days, then titrated up every two days to 32 mg and 64 mg respectively. During the fixed-dose period, the optimal adjusted dose evaluated for each patient or the maximum daily dose of 64 mg of CYR-101 was administered. In one aspect of the study, the dosage of compound was titrated up to 32 mg b.i.d.
During the lead-in period, oral administration of 1 placebo SR tablet was conducted twice a day for 3 days. During the dose adjustment and fixed-dose periods, oral administration of 1, 2, or 4 placebo SR tablets was used twice daily as performed for the test product.
The resulting data was analyzed one of three ways: 1.) Safety set; 2.) Full analysis set, with each patient having at least one PANSS evaluation after treatment initiation included in the efficacy analysis. The LOCF method is used; and 3.) Per protocol set, where for certain analyses, all patients having completed three months of treatment are included. ANCOVA followed by a contrast analysis at each time point were applied and in some cases, a non-parametric Wilcoxon test was used.
1. Primary: PANSS total score and sub-scores, after one month of treatment
2. […]

[2] = tested on: patients with DSM-IV schizophrenia; assay: Phase 2 clinical study: safety (extrapyramidal symptoms, adverse events, QT interval); type: in vivo, human
Protocol: as §1, §2
4. Safety: 12-lead ECG, adverse event (AE) recording, vital signs, physical examination, weight and waist circumference, safety lab tests, evaluation of extra-pyramidal symptoms (measured by Simpson and Angus scale), and prolactin levels.
3. Safety: Descriptive statistics on the safety set for extent of exposure, adverse events recording, safety lab tests, 12-lead ECG parameters, vital signs, and physical examination, weight and waist circumference, extra-pyramidal symptoms, prolactin levels.

5-HT2A = 5-HT2A (Homo sapiens, UniProt P28223); settings: known: dual 5-HT2A/sigma 2; cited from earlier work
Chain of 5-HT2A (P28223 whole entry, species assumed): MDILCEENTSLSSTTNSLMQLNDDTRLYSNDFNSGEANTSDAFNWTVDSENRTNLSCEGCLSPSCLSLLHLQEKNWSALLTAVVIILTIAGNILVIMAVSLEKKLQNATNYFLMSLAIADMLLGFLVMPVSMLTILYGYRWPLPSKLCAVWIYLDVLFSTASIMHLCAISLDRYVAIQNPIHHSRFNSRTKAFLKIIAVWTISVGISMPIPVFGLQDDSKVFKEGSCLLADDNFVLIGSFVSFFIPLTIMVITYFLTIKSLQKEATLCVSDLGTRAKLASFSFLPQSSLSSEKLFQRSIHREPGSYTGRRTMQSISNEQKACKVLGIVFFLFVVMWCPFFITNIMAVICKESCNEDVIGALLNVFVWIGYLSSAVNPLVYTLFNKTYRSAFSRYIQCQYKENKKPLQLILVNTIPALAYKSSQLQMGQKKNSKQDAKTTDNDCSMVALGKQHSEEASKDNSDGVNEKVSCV

[3] = D14, ANCOVA contrast, not statistically significant
[4] = D14, ANCOVA, no significant treatment effect
[5] = D14, not statistically significant

Chain of sigma 2 receptor (Q5BJF2 whole entry, species assumed): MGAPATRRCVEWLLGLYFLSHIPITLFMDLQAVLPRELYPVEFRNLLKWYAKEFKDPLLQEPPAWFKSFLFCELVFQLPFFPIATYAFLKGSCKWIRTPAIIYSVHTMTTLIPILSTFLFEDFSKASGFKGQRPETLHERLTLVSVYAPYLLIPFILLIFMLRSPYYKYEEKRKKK

O=C(CN1CCC(CN2Cc3ccccc3C2=O)CC1)c1ccc(F)cc1 [CYR-101, 2-[[1-[2-(4-Fluorophenyl)-2-oxoethyl]piperidin-4-yl]methyl]isoindolin-1-one]
Receptor binding selectivity (sigma 2 receptor): sigma 2-selective receptor binding | Decrease of sleep efficiency index (SEI) compared to placebo (schizophrenic patients; [3]): 2.4% | Decrease of total sleep time (TST) compared to placebo (schizophrenic patients; [3]): 13.7 min | Increase of duration of wake after sleep onset (WASO) compared to placebo (schizophrenic patients; [3]): 26.6 min | Latency to persistent sleep (schizophrenic patients; [4]): trend of improvement | Sleep onset latency (schizophrenic patients; [4]): trend of improvement | REM sleep latency contrast (schizophrenic patients; D14, non significant): appeared later | SWS latency contrast (schizophrenic patients; D14, non significant): appeared sooner | Decrease of REM sleep in SPT2 and in SPT3 (schizophrenic patients; [5]): 3.03% | Increase of REM sleep in the first third of SPT (REM_SPT1) (schizophrenic patients; [5]): 1.4% | Slow Wave Sleep (SWS) compared to placebo (schizophrenic patients; [5]): increased | Stage 1 (ST1) compared to placebo (schizophrenic patients; [5]): decreased | Stage 2 (ST2 in min) compared to placebo (schizophrenic patients; [5]): decreased | Total Time Awake (TTA) compared to placebo (schizophrenic patients; [5]): increased | nonREM sleep (NREM) compared to placebo (schizophrenic patients; [5]): increased | Decrease of SWS during the last third of SPT (SWS-SPT3) compared to placebo (schizophrenic patients; D14, p<0.05): 22.1% | Increase of SWS in the first third of SPT (SWS-SPT1) compared to placebo (schizophrenic patients; D14, p<0.05): 23.6% | REM sleep (REM) compared to placebo (schizophrenic patients; D14, significant only for REM-TST (p<0.05)): decreased | Dopamine binding properties (dopamine): devoid of dopamine binding properties | PANSS general psychopathology sub-score, treatment difference vs placebo ([1]; D28, FAS): no treatment difference | PANSS positive sub-score, treatment difference vs placebo ([1]; D28, FAS): no treatment difference | PANSS total score, change from baseline, treatment difference vs placebo ([1]; D28, FAS): no treatment difference | PANSS negative sub-score decrease ([1]; D28, FAS, p<0.01): −1.9 | PANSS general psychopathology sub-score, treatment difference vs placebo ([1]; D28, PPC): no treatment difference | PANSS positive sub-score, treatment difference vs placebo ([1]; D28, PPC): no treatment difference | PANSS total score, treatment difference vs placebo ([1]; D28, PPC): no treatment difference | PANSS negative sub-score decrease ([1]; D28, PPC, p<0.0010): −4.7 | PANSS general psychopathology sub-score, treatment difference vs placebo ([1]; D84, FAS): no significant treatment difference | PANSS positive sub-score, treatment difference vs placebo ([1]; D84, FAS): no significant treatment difference | PANSS total score, change from baseline, treatment difference vs placebo ([1]; D84, FAS): no significant treatment difference | PANSS negative sub-score point estimate decrease ([1]; D84, FAS, p<0.01): −2.3 | PANSS total score vs placebo ([1]; D84, PPC, obvious switch on D56): favorable trend of CYR-101 over placebo | PANSS negative sub-score improvement ([1]; D84, PPC, p<0.001, treatment difference vs placebo p=0.0581): −5.8 | PANSS positive sub-score vs placebo ([1]; D84, PPC, switch between D56 and D70): favorable trend of CYR-101 over placebo | PANSS general psychopathology sub-score vs placebo ([1]; D84, PPC, switch on D70): favorable trend of CYR-101 over placebo | Cognitive performances assessed by BACS vs placebo ([1]; FAS): no differences between the placebo group and the CYR-101 group, except for the Token motor task | MADRS Total change score, difference vs placebo ([1]; FAS and PPC, D28 and D84, reduction in both groups): not statistically significant | CGI-S score, difference between CYR-101 and placebo ([1]; FAS, D28 and D84): no significant difference | HAMA total score change from baseline ([1]; FAS, D28 and D84, non statistically significant): slight HAMA total score reduction | HAMA total score reduction ([1]; PPC, D28, p=0.2920): −1.0 | BACS Token motor task, list learning task, verbal fluency vs placebo ([1]; PPC, D84, descriptive data, not statistically significant): slight difference in favor of CYR-101 group; also recorded: slight difference in favour of CYR-101 group | HAMA total score reduction ([1]; PPC, D84, p=0.0642): −2.9 | CGI-S mean difference score ([1]; PPC, from D56 until D84): non significant but an interesting switch in favor of CYR-101 | Improvement of negative symptoms, onset ([1]; course of treatment): observed immediately | Improvement of positive symptoms, onset ([1]; course of treatment): did not improve until after the first four weeks of treatment | Duration of improvement in both positive and negative symptoms ([1]; in vivo): continued for more than twelve weeks | Effect on cognition in schizophrenic patients ([1]; in vivo): positive effect on cognition | DAI-10 total score change from baseline, difference between groups ([1]; to D28 and D84, FAS and PPC): no statistically significant difference | Increase in the QT interval ([2]; doses up to 32 mg b.i.d., stable over time, limits e.g. 10-15 milliseconds or less): did not cross clinically acceptable limits | Emergence or worsening of extrapyramidal symptoms, CYR-101 vs placebo ([2]; human, in vivo): no significant difference | Number of SAE in the active treatment group ([2]; unlikely related to CYR-101 based on the patient history): one | Mode of action at 5-HT2A (5-HT2A): antagonist
